test system: MPP-89; assay: cells; format: functional, cell-based, Homo sapiens; conditions: Homo sapiens, MPP-89;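 further: growth inhibition of human MPP-89 cells, read out with a cell viability assay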
Description: SANGER: Inhibition of human MPP-89 cell growth in a cell viability assay.

Compound | IC50
NC(=O)c1ccc(N(C(N)=O)c2c(F)cccc2F)nc1-c1ccc(F)cc1F [VX-702] | > 2000 nM

test system: MZ2-MEL; assay: cells; format: functional, cell-based, Homo sapiens; conditions: Homo sapiens, MZ2-MEL;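 further: growth inhibition of MZ2-MEL cells read out with a cell viability assay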
Description: SANGER: Inhibition of human MZ2-MEL cell growth in a cell viability assay.

Compound | IC50
NC(=O)c1ccc(N(C(N)=O)c2c(F)cccc2F)nc1-c1ccc(F)cc1F [VX-702] | > 2000 nM

test system: NB5; assay: cells; format: functional, cell-based, Homo sapiens; conditions: Homo sapiens, NB5;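 further: growth inhibition of NB5 cells, read out as cell viability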
Description: SANGER: Inhibition of human NB5 cell growth in a cell viability assay.

Compound | IC50
NC(=O)c1ccc(N(C(N)=O)c2c(F)cccc2F)nc1-c1ccc(F)cc1F [VX-702] | > 2000 nM

test system: NB6; assay: cells; format: functional, cell-based, Homo sapiens; conditions: Homo sapiens, NB6;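 further: growth inhibition of NB6 cells, read out by a cell viability assay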
Description: SANGER: Inhibition of human NB6 cell growth in a cell viability assay.

Compound | IC50
NC(=O)c1ccc(N(C(N)=O)c2c(F)cccc2F)nc1-c1ccc(F)cc1F [VX-702] | > 2000 nM

test system: NCI-H1304; assay: cells; format: functional, cell-based, Homo sapiens; conditions: Homo sapiens, NCI-H1304;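 further: growth inhibition of the cancer cell line, measured in a cell viability assay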
Description: SANGER: Inhibition of human NCI-H1304 cell growth in a cell viability assay.

Compound | IC50
NC(=O)c1ccc(N(C(N)=O)c2c(F)cccc2F)nc1-c1ccc(F)cc1F [VX-702] | > 2000 nM

test system: NCI-H1395; assay: cells; format: functional, cell-based, Homo sapiens; conditions: Homo sapiens, NCI-H1395;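 further: cell viability assay read-out quantifying reduced proliferation of human NCI-H1395 cells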
Description: SANGER: Inhibition of human NCI-H1395 cell growth in a cell viability assay.

Compound | IC50
NC(=O)c1ccc(N(C(N)=O)c2c(F)cccc2F)nc1-c1ccc(F)cc1F [VX-702] | > 2000 nM

test system: NCI-H2126; assay: cells; format: functional, cell-based, Homo sapiens; conditions: Homo sapiens, NCI-H2126;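 further: growth inhibition of the cancer cell line, determined with a cell viability readout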
Description: SANGER: Inhibition of human NCI-H2126 cell growth in a cell viability assay.

Compound | IC50
NC(=O)c1ccc(N(C(N)=O)c2c(F)cccc2F)nc1-c1ccc(F)cc1F [VX-702] | > 2000 nM

test system: NCI-H747; assay: cells; format: functional, cell-based, Homo sapiens; conditions: Homo sapiens, NCI-H747;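 further: growth inhibition of human NCI-H747 cells, read out by a cell viability assay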
Description: SANGER: Inhibition of human NCI-H747 cell growth in a cell viability assay.

Compound | IC50
NC(=O)c1ccc(N(C(N)=O)c2c(F)cccc2F)nc1-c1ccc(F)cc1F [VX-702] | > 2000 nM

test system: NKM-1; assay: cells; format: functional, cell-based, Homo sapiens; conditions: Homo sapiens, NKM-1;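 further: growth inhibition of NKM-1 cells, read out with a cell viability assay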
Description: SANGER: Inhibition of human NKM-1 cell growth in a cell viability assay.

Compound | IC50
NC(=O)c1ccc(N(C(N)=O)c2c(F)cccc2F)nc1-c1ccc(F)cc1F [VX-702] | > 2000 nM

test system: OCUB-M; assay: cells; format: functional, cell-based; conditions: Homo sapiens;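 further: growth inhibition of the cancer cell line, read out through a cell viability assay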
Description: SANGER: Inhibition of human OCUB-M cell growth in a cell viability assay.

Compound | IC50
NC(=O)c1ccc(N(C(N)=O)c2c(F)cccc2F)nc1-c1ccc(F)cc1F [VX-702] | > 2000 nM

test system: OVCAR-4; assay: cells; format: functional, cell-based, Homo sapiens; conditions: Homo sapiens, OVCAR-4;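 further: growth inhibition of human OVCAR-4 cells, measured with a cell viability assay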
Description: SANGER: Inhibition of human OVCAR-4 cell growth in a cell viability assay.

Compound | IC50
NC(=O)c1ccc(N(C(N)=O)c2c(F)cccc2F)nc1-c1ccc(F)cc1F [VX-702] | > 2000 nM

test system: RCC10RGB; assay: cells; format: functional, cell-based, Homo sapiens; conditions: Homo sapiens, RCC10RGB;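 further: growth inhibition of human RCC10RGB cells, read out by a cell viability assay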
Description: SANGER: Inhibition of human RCC10RGB cell growth in a cell viability assay.

Compound | IC50
NC(=O)c1ccc(N(C(N)=O)c2c(F)cccc2F)nc1-c1ccc(F)cc1F [VX-702] | > 2000 nM

test system: RXF 393; assay: cells; format: functional, cell-based, Homo sapiens; conditions: Homo sapiens, RXF 393;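 further: growth inhibition of human RXF 393 cells, read out with a cell viability assay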
Description: SANGER: Inhibition of human RXF393 cell growth in a cell viability assay.

Compound | IC50
NC(=O)c1ccc(N(C(N)=O)c2c(F)cccc2F)nc1-c1ccc(F)cc1F [VX-702] | > 2000 nM

test system: SF-126; assay: cells; format: functional, cell-based, Homo sapiens; conditions: Homo sapiens, SF-126;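 further: growth inhibition of human SF126 cells, read out with a cell viability assay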
Description: SANGER: Inhibition of human SF126 cell growth in a cell viability assay.

Compound | IC50
NC(=O)c1ccc(N(C(N)=O)c2c(F)cccc2F)nc1-c1ccc(F)cc1F [VX-702] | > 2000 nM

test system: SH-4; assay: cells; format: functional, cell-based; conditions: Homo sapiens;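 further: growth inhibition of SH-4 cells, read out with a cell viability assay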
Description: SANGER: Inhibition of human SH-4 cell growth in a cell viability assay.

Compound | IC50
NC(=O)c1ccc(N(C(N)=O)c2c(F)cccc2F)nc1-c1ccc(F)cc1F [VX-702] | > 2000 nM

test system: SK-MEL-1; assay: cells; format: functional, cell-based, Homo sapiens; conditions: Homo sapiens, SK-MEL-1;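 further: growth inhibition of human SK-MEL-1 cells, read out by a cell viability assay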
Description: SANGER: Inhibition of human SK-MEL-1 cell growth in a cell viability assay.

Compound | IC50
NC(=O)c1ccc(N(C(N)=O)c2c(F)cccc2F)nc1-c1ccc(F)cc1F [VX-702] | > 2000 nM

test system: SNU-C2B; assay: cells; format: functional, cell-based; conditions: Homo sapiens;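 further: cell viability readout used to measure compound-driven suppression of SNU-C2B cell proliferation, IC50 marking half-maximal growth inhibition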
Description: SANGER: Inhibition of human SNU-C2B cell growth in a cell viability assay.

Compound | IC50
NC(=O)c1ccc(N(C(N)=O)c2c(F)cccc2F)nc1-c1ccc(F)cc1F [VX-702] | > 2000 nM

test system: ALL-PO; assay: cells; format: functional, cell-based, Homo sapiens; conditions: Homo sapiens, ALL-PO;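 further: growth inhibition of ALL-PO cells, read out by a cell viability assay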
Description: SANGER: Inhibition of human ALL-PO cell growth in a cell viability assay.

Compound | IC50
NC(=O)c1ccc(N(C(N)=O)c2c(F)cccc2F)nc1-c1ccc(F)cc1F [VX-702] | > 2000 nM

test system: BB49-HNC; assay: cells; format: functional, cell-based, Homo sapiens; conditions: Homo sapiens, BB49-HNC;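 further: cell viability assay read-out, reported as inhibition of BB49-HNC cell growth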
Description: SANGER: Inhibition of human BB49-HNC cell growth in a cell viability assay.

Compound | IC50
NC(=O)c1ccc(N(C(N)=O)c2c(F)cccc2F)nc1-c1ccc(F)cc1F [VX-702] | > 2000 nM

test system: BE-13; assay: cells; format: functional, cell-based, Homo sapiens; conditions: Homo sapiens, BE-13;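 further: growth inhibition of human BE-13 cells, measured with a cell viability assay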
Description: SANGER: Inhibition of human BE-13 cell growth in a cell viability assay.

Compound | IC50
NC(=O)c1ccc(N(C(N)=O)c2c(F)cccc2F)nc1-c1ccc(F)cc1F [VX-702] | > 2000 nM

test system: C2BBe1; assay: cells; format: functional, cell-based, Homo sapiens; conditions: Homo sapiens, C2BBe1;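 further: growth inhibition of C2BBe1 cells, read out through a viability assay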
Description: SANGER: Inhibition of human C2BBe1 cell growth in a cell viability assay.

Compound | IC50
NC(=O)c1ccc(N(C(N)=O)c2c(F)cccc2F)nc1-c1ccc(F)cc1F [VX-702] | > 2000 nM

test system: TE-10; assay: cells; format: functional, cell-based, Homo sapiens; conditions: Homo sapiens, TE-10;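 further: growth inhibition of TE-10 cells, measured by a cell viability assay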
Description: SANGER: Inhibition of human TE-10 cell growth in a cell viability assay.

Compound | IC50
NC(=O)c1ccc(N(C(N)=O)c2c(F)cccc2F)nc1-c1ccc(F)cc1F [VX-702] | > 2000 nM

test system: TGBC24TKB; assay: cells; format: functional, cell-based; conditions: Homo sapiens;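 further: growth inhibition of human TGBC24TKB cells, read out with a cell viability assay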
Description: SANGER: Inhibition of human TGBC24TKB cell growth in a cell viability assay.

Compound | IC50
NC(=O)c1ccc(N(C(N)=O)c2c(F)cccc2F)nc1-c1ccc(F)cc1F [VX-702] | > 2000 nM

test system: VA-ES-BJ; assay: cells; format: functional, cell-based, Homo sapiens; conditions: Homo sapiens, VA-ES-BJ;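 further: growth inhibition of the VA-ES-BJ cell line, read out by a cell viability assay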
Description: SANGER: Inhibition of human VA-ES-BJ cell growth in a cell viability assay.

Compound | IC50
NC(=O)c1ccc(N(C(N)=O)c2c(F)cccc2F)nc1-c1ccc(F)cc1F [VX-702] | > 2000 nM

test system: no-11; assay: cells; format: functional, cell-based, Homo sapiens; conditions: Homo sapiens;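 further: growth inhibition of human NO-11 cells, read out with a cell viability assay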
Description: SANGER: Inhibition of human no-11 cell growth in a cell viability assay.

Compound | IC50
NC(=O)c1ccc(N(C(N)=O)c2c(F)cccc2F)nc1-c1ccc(F)cc1F [VX-702] | > 2000 nM

test system: COLO-684; assay: cells; format: functional, cell-based, Homo sapiens; conditions: Homo sapiens, COLO-684
Description: SANGER: Inhibition of human COLO-684 cell growth in a cell viability assay.

Compound | IC50
NC(=O)c1ccc(N(C(N)=O)c2c(F)cccc2F)nc1-c1ccc(F)cc1F [VX-702] | > 2000 nM

Source: ChEMBL document CHEMBL1201861, “Genomics of Drug Sensitity in Cancer screening data, Wellcome Trust Sanger Institute”
